From patent US20210244704A1, “Cabazitaxel in mCRPC Patients Previously Treated with Docetaxel and Who Failed a Prior androgen signaling targeted inhibitor Agent” (SANOFI MATURE IP, priority 2019, published 2021)

Columns and labels:
[1] = test system: metastatic castration-resistant prostate cancer (mCRPC) patients previously treated with docetaxel and who failed a prior androgen signaling targeted inhibitor; test: Randomized open-label clinical study, cabazitaxel vs abiraterone acetate or enzalutamide: imaging-based PFS, OS, PFS, PSA and tumor response; assay type: in vivo, human; settings: for Deaths: at cut-off date; for rPFS, HR: cabazitaxel vs abiraterone or enzalutamide
Source text: Imaging-based progression-free survival (rPFS): defined as the time from randomization until the occurrence of one of the following events: objective tumor progression (Response Evaluation Criteria in Solid Tumors, version 1.1), progression of bone lesions (Prostate Cancer Working Group 2) or death due to any cause.
Overall survival (OS): defined as the time from the date of randomization to the date of death due to any cause.
Progression-free survival (PFS) defined as the time from randomization until the occurrence of objective tumor progression (using Response Evaluation Criteria in Solid Tumors, version 1.1), or progression of bone lesions (using Prostate Cancer Working Group 2 criteria), or symptomatic progression (defined as the development of urinary or bowel symptoms related to prostate cancer or requiring a change of anticancer therapy), or pain progression, or death due to any cause.
PSA response: defined as a decline of serum PSA from baseline of ≥50% with confirmation from a second PSA value measured at least 3 weeks apart. Best PSA response was defined using the Prostate Cancer Working Group criteria 2 definition.
Tumor response (TR): was measured using Response Evaluation Criteria in Solid Tumors, version 1.1 in patients with measurable disease.
A clinical study was performed wherein patients received cabazitaxel versus an Androgen Receptor (AR)-targeted agent (abiraterone acetate or enzalutamide) in metastatic castration-resistant prostate cancer (mCRPC) patients previously treated with docetaxel and who failed a prior androgen signaling pathway inhibitor within 12 months.
For patients in Arm A, cabazitaxel 25 mg/m^2 was administered intravenously over 1 hour every 3 weeks along with oral prednisone 10 mg given daily. Primary prophylactic granulocyte-colony stimulating factor (G-CSF) was required at each cycle for all patients in the cabazitaxel arm
For patients in Arm B, abiraterone acetate was administered orally at 1000 mg once daily along with oral prednisone 5 mg given twice daily or enzalutamide was administered orally at 160 mg once daily continuously. Abiraterone acetate was administered to patients who had received enzalutamide prior to study entry. Enzalutamide was administered to patients who received prior abiraterone acetate.
Each patient was treated until imaging-based disease progression, unacceptable toxicity, or patient's refusal of further study treatment. All patients were followed when on study treatment and after completion of study treatment during follow-up period until death, the study cut-off date, or withdrawal of patients' consent whichever came first.
Eligible patients were randomized to receive either cabazitaxel or an AR pathway inhibitor (abiraterone acetate or enzalutamide; dependent on the use of a previous androgen signaling targeted inhibitor) in a 1:1 ratio. Stratification criteria were Eastern Cooperative Oncology Group performance status, a 5-point scale where higher numbers indicate greater disability (0-1 vs. 2), and time to disease progression (≤6 months vs. >6-12 months) and timing (before vs. after docetaxel) with previous alternative AR pathway inhibitors.
Cabazitaxel 25 mg/m^2, was administered intravenously over 1 hour every 3 weeks with oral prednisone 10 mg daily. Premedication included an antihistamine, glucocorticoid (dexamethasone 8 mg or equivalent), and histamine 2 receptor antagonist. Antiemetic prophylaxis was administered at physician's discretion. Primary prophylactic granulocyte-colony stimulating factor was required during each cycle of cabazitaxel. Patients received either abiraterone acetate (1000 mg orally once daily and oral prednisone 5 mg twice daily) or enzalutamide (160 mg orally once daily) continuously. A treatment cycle was 3 weeks in both arms. Abiraterone acetate was given to patients who previously received enzalutamide before study entry. Enzalutamide was given to patients who previously received abiraterone acetate. […]

[2] = test system: symptomatic skeletal events in mCRPC patients; test: Same clinical study: symptomatic skeletal events (SSE); assay type: in vivo, human
Source text: Time to symptomatic skeletal event rate: is defined as the time interval between the date of randomization and the date of the occurrence of the first event defining a symptomatic skeletal event (occurrence of a new symptomatic fracture, use of radiation therapy to relieve bone pain, occurrence of spinal cord compression or cancer-related orthopedic surgical intervention).
SSEs were defined as either the use of external beam radiation to relieve bone pain, occurrence of new symptomatic pathologic fractures, occurrence of spinal cord compression, or tumor-related orthopedic surgical intervention. SSEs were evaluated at baseline, at each visit, at the end of treatment, and every 12 weeks during follow-up. Standard imaging (bone scans and computed tomography or magnetic resonance imaging of the pelvis, abdomen, and chest) was scheduled at baseline and every 12 weeks until imaging-based disease progression. Pathologic fractures and spinal cord compression were assessed by imaging as needed throughout the study. Time to SSE was defined as time from randomization until first documented SSE.
Efficacy analysis used all randomized patients. Stratified log-rank tests were used to analyze time-to-event data. The primary analysis compared radiographic progression-free survival between the two treatment groups using a stratified log-rank test. Survival curves were generated using Kaplan-Meier estimates. Hazard ratios and associated 95% confidence intervals [CI] were estimated using a stratified Cox proportional hazards model. Stratified Cochran-Mantel-Haenszel chi-square tests were used to analyze categorical data. Descriptive statistics were used to summarize patient characteristics. The safety population (randomized patients who received at least one dose of study treatment) was used for all safety analyses.

[3] = cabazitaxel vs androgen signaling targeted inhibitor

With `CO[C@H]1C(=O)[C@]2(C)[C@@H](OC)C[C@H]3OC[C@@]3(OC(C)=O)[C@H]2[C@H](OC(=O)c2ccccc2)[C@]2(O)C[C@H](OC(=O)[C@H](O)[C@@H](NC(=O)OC(C)(C)C)c3ccccc3)C(C)=C1C2(C)C` [Cabazitaxel, 4α-acetoxy-2α-benzoyloxy-5β,20-epoxy-1p-hydroxy-7β,10β-dimethoxy-9-oxo-11-taxen-13α-yl (2R,3S)-3-tert-butoxycarbonylamino-2-hydroxy-3-phenylpropionate] the Deaths [1] was 54.3%, the Deaths ([1]; number) was 70 and the “Radiographic progression-free survival, hazard ratio, post hoc” value ([1]; cabazitaxel vs abiraterone acetate) was 0.44. The “Overall survival, HR in multivariate analysis” value ([1]; cabazitaxel vs abiraterone/enzalutamide, in presence of low hemoglobin, high baseline NLR, high PSA) was 0.63, the “Imaging-based progression-free survival, hazard ratio” value [1, 3] was 0.54 and the “Overall survival, hazard ratio” value [1, 3] was 0.64. The “Progression-free survival, hazard ratio” value [1, 3] was 0.52, the “Radiographic progression-free survival, hazard ratio, post hoc” value ([1]; cabazitaxel vs enzalutamide) was 0.57 and the “Reduction of the risk of death from any cause” value ([1]; compared with abiraterone acetate or enzalutamide, all patients) was 36%. The “Confirmed PSA reduction ≥50% from baseline” value ([1]; evaluable patients) was “(35.7) %”, the “Confirmed PSA reduction ≥50% from baseline” value ([1]; evaluable patients, listed as cabazitaxel) was 35.7% and the “Radiographic progression-free survival, treatment effect hazard ratio, multivariate” value ([1]; fixed model MV-1) was 0.54. The “Overall survival, median” value ([1]; from randomization) was 13.6 months, the “Median OS from time of 1st LET” value ([1]; human, in vivo) was 36.4 months and the “Median OS from time of 2nd LET” value ([1]; human, in vivo) was 24.2 months. The “Median OS from time of 3rd LET” value ([1]; human, in vivo) was 13.6 months, the “Median OS from time of mCRPC diagnosis” value ([1]; human, in vivo) was 40.9 months and the “Median OS from time of metastatic disease diagnosis” value ([1]; human, in vivo) was 54.7 months. The “Progression-free survival, median” value ([1]; human, in vivo) was 4.4 months, the “Treatment discontinuation for disease progression” value ([1]; human, in vivo) was 43.7% and the “Imaging-based progression-free survival, median” value ([1]; intention-to-treat population) was 8.0 months. The Overall response rate ([1]; measurable disease) was 36.5%, the “Tumor response, complete” value ([1]; measurable disease) was 0 n and the “Tumor response, progressive disease” value ([1]; measurable disease) was 15 n. For the same compound, the “Confirmed PSA reduction ≥50% from baseline” value ([1]; number of patients, evaluable 115 and 111) was 41, the “rPFS, HR” value ([1]; patients 70 years or older) was 0.58 and the “rPFS, HR” value ([1]; patients aged <70 years) was 0.47. The “Radiographic progression-free survival, treatment effect hazard ratio, multivariate” value ([1]; stepwise model MV-2) was 0.50, the “Radiographic progression-free survival, treatment effect hazard ratio, multivariate” value ([1]; stepwise model MV-3) was 0.52 and the “Reduction in the risk of death” value ([1]; vs abiraterone or enzalutamide, both in patients ≥70 and <70 years) was 34%. The “Patients estimated to have a symptomatic skeletal event at 18 months” value ([2]; 18 months) was 28.8%, the “Kaplan-Meier probability of not having symptomatic skeletal events” value ([2]; at 3 months) was 92.6% and the “Kaplan-Meier probability of not having symptomatic skeletal events” value ([2]; at 6 months) was 85.8%. The “Kaplan-Meier probability of not having symptomatic skeletal events” value ([2]; at 12 months) was 79.4%, the “Kaplan-Meier probability of not having symptomatic skeletal events” value ([2]; at 18 months) was 71.2% and the “Time to symptomatic skeletal events, hazard ratio” value [2, 3] was 0.59. The “Surgery to the bone (first SSE)” value ([2]; human, in vivo) was 0 n.
